Experiment [1] has as its system control sera (pooled serum of ten healthy LUMC hospital workers; commercial negative donor pooled serum from the Dutch bloodbank). Type of experiment: binding, human. On the set-up: Binding of Control serum LUMC to linear peptides / Binding of Control serum Blood-bank to linear peptides / Binding of Control serum LUMC to looped peptides / Binding of Control Serum Blood-Bank to Looped peptides / Binding of Control serum LUMC to linear peptides of the protein M of SARS-CoV Urbani / Binding of Control serum Blood-bank to linear peptides of the protein M of SARS-CoV Urbani / Binding of Control serum LUMC to looped peptides of the protein M of SARS-CoV Urbani / Binding of Control Serum Blood-Bank to Looped peptides of the protein M of SARS-CoV Urbani: unit not given here.

Experiment [2] concerns antibodies in sera from SARS patients (sera 1a, 1b, 2, 6, 37, 62, London, SARS-yellow, SARS-green). The experiment is classed as binding, human. On the set-up: Binding of serum 6 to linear peptides of protein X1 of SARS-CoV Urbani / Binding of serum 37 to linear peptides of protein X1 of SARS-CoV Urbani / Binding of serum 6 to looped/cyclic peptide (PEPSCAN-ELISA) / Binding of serum 37 to looped/cyclic peptide (PEPSCAN-ELISA) / Binding of serum 37 to looped/cyclic peptides of protein X1 of SARS-CoV Urbani / Binding of serum 6 to linear peptides of protein X2 / Binding of serum 37 to linear peptides of protein X2 / Binding of serum 37 to looped/cyclic peptides of protein X2 of SARS-CoV Urbani / Binding of serum 6 to linear peptides of protein M of SARS-CoV Urbani / Binding of serum 37 to linear peptides of protein M of SARS-CoV Urbani / Binding of serum 6 to looped/cyclic peptides of protein M of SARS-CoV Urbani / Binding of serum 37 to looped/cyclic peptides of protein M of SARS-CoV Urbani / Binding of serum 6 to linear peptides of protein X3 of SARS-CoV Urbani / Binding of serum 37 to linear peptides of protein X3 of SARS-CoV Urbani / Binding of serum 37 to looped/cyclic peptides of protein X3 of SARS-CoV Urbani / Binding of serum 6 to linear peptides of protein X4 of SARS-CoV Urbani / Binding of serum 37 to linear peptides of protein X4 of SARS-CoV Urbani / Binding of serum 37 to looped/cyclic peptides of protein X4 of SARS-CoV Urbani / Binding of serum 6 to linear peptides of protein X5 of SARS-CoV Urbani / Binding of serum 37 to linear peptides of protein X5 of SARS-CoV Urbani / Binding of serum 37 to looped/cyclic peptides of protein X5 of SARS-CoV Urbani / Binding of serum 6 to linear peptides of protein N of SARS-CoV Urbani / Binding of serum 37 to linear peptides of protein N of SARS-CoV Urbani / Binding of serum 6 to linear peptide (PEPSCAN-ELISA) / Binding of serum 1a to looped/cyclic peptides of protein N of SARS-CoV Urbani / Binding of serum 1b to looped/cyclic peptides of protein N of SARS-CoV Urbani / Binding of serum 2 to looped/cyclic peptides of protein N of SARS-CoV Urbani / Binding of serum 6 to looped/cyclic peptides of protein N of SARS-CoV Urbani / Binding of serum 37 to looped/cyclic peptides of protein N of SARS-CoV Urbani / Binding of serum 62 to looped/cyclic peptides of protein N of SARS-CoV Urbani / Binding of serum London to looped/cyclic peptides of protein N of SARS-CoV Urbani / Binding of serum SARS-green to looped/cyclic peptides of protein N of SARS-CoV Urbani: unit not given here.

The test system of experiment [3] is rabbit serum obtained by immunizing a rabbit with the SARS-CoV strain Frankfurt 1. Type of experiment: binding. On the set-up: Binding of a rabbit serum to linear peptides / Binding of a rabbit serum to looped peptides / Rabbit serum linear peptides / Rabbit serum looped peptides / Binding of a rabbit serum to linear peptides of protein N of SARS-CoV Urbani (Rabbit serum linear peptides) / Binding of a rabbit serum to looped/cyclic peptides of protein N of SARS-CoV Urbani (Rabbit serum looped peptides): unit not given here.

Consider MCLKILVRYNTRGNT, for which, in experiment [1], the “Binding of Control Serum Blood-Bank to Looped peptides” value came out at 0.4, the “Binding of Control serum Blood-bank to linear peptides” value is 0.8, the “Binding of Control serum LUMC to linear peptides” value is 0.6 and the “Binding of Control serum LUMC to looped peptides” value worked out at 0.5. Also, in experiment [2], the “Binding of serum 1a to linear peptides of protein X5 of SARS-CoV Urbani” value is on record as 0.8, the “Binding of serum 1a to looped/cyclic peptides of protein X5 of SARS-CoV Urbani” value came to 0.5, the “Binding of serum 1b to linear peptides of protein X5 of SARS-CoV Urbani” value was determined as 0.6 and the “Binding of serum 1b to looped/cyclic peptides of protein X5 of SARS-CoV Urbani” value is 0.3. In addition, in experiment [2], the “Binding of serum 2 to linear peptides of protein X5 of SARS-CoV Urbani” value was found to be 0.8, the “Binding of serum 2 to looped/cyclic peptides of protein X5 of SARS-CoV Urbani” value is recorded as 0.5, the “Binding of serum 6 to linear peptides of protein X5 of SARS-CoV Urbani” value was 1.4 and the “Binding of serum 6 to looped/cyclic peptides of protein X5 of SARS-CoV Urbani” value was 0.4. In experiment [2], the “Binding of serum 37 to linear peptides of protein X5 of SARS-CoV Urbani” value was found to be 0.9, the “Binding of serum 37 to looped/cyclic peptides of protein X5 of SARS-CoV Urbani” value is reported as 0.5, the “Binding of serum 62 to linear peptides of protein X5 of SARS-CoV Urbani” value is given as 0.9 and the “Binding of serum 62 to looped/cyclic peptides of protein X5 of SARS-CoV Urbani” value is reported as 0.7. Also, in experiment [2], the “Binding of serum London to linear peptides of protein X5 of SARS-CoV Urbani” value came out at 0.8, the “Binding of serum London to looped/cyclic peptides of protein X5 of SARS-CoV Urbani” value was determined as 0.4, the “Binding of serum SARS-green to linear peptides of protein X5 of SARS-CoV Urbani” value was 0.9 and the “Binding of serum SARS-green to looped/cyclic peptides of protein X5 of SARS-CoV Urbani” value was 0.2. In experiment [2], the “Binding of serum SARS-yellow to linear peptides of protein X5 of SARS-CoV Urbani” value was found to be 0.7 and the “Binding of serum SARS-yellow to looped/cyclic peptides of protein X5 of SARS-CoV Urbani” value is given as 0.8. Also, in experiment [3], the “Rabbit serum linear peptides” value stood at 0.7 and the “Rabbit serum looped peptides” value worked out at 0.5.
As to MDLFMRFFTLGSITA, in experiment [1], the “Binding of Control Serum Blood-Bank to Looped peptides” value was found to be 0.6, the “Binding of Control serum Blood-bank to linear peptides” value is listed as 0.7, the “Binding of Control serum LUMC to linear peptides” value was found to be 0.6 and the “Binding of Control serum LUMC to looped peptides” value came to 0.6. For the same sequence, in experiment [2], the “Binding of serum 1a to linear peptides of protein X1 of SARS-CoV Urbani” value worked out at 0.8, the “Binding of serum 1a to looped/cyclic peptide (PEPSCAN-ELISA)” value was determined as 0.5, the “Binding of serum 1b to linear peptides of protein X1 of SARS-CoV Urbani” value amounted to 0.7 and the “Binding of serum 1b to looped/cyclic peptide (PEPSCAN-ELISA)” value was 0.3. In experiment [2], the “Binding of serum 2 to linear peptides of protein X1 of SARS-CoV Urbani” value was 0.7, the “Binding of serum 2 to looped/cyclic peptide (PEPSCAN-ELISA)” value was 0.4, the “Binding of serum 6 to linear peptides of protein X1 of SARS-CoV Urbani” value is recorded as 0.5 and the “Binding of serum 6 to looped/cyclic peptide (PEPSCAN-ELISA)” value came to 1.0. In addition, in experiment [2], the “Binding of serum 37 to linear peptides of protein X1 of SARS-CoV Urbani” value was 0.7, the “Binding of serum 37 to looped/cyclic peptide (PEPSCAN-ELISA)” value turned out to be 0.4, the “Binding of serum 62 to linear peptides of protein X1 of SARS-CoV Urbani” value came to 0.7 and the “Binding of serum 62 to looped/cyclic peptide (PEPSCAN-ELISA)” value turned out to be 0.5. In experiment [2], the “Binding of serum London to linear peptides of protein X1 of SARS-CoV Urbani” value is given as 0.3, the “Binding of serum London to looped/cyclic peptide (PEPSCAN-ELISA)” value is on record as 0.8, the “Binding of serum SARS-green to linear peptides of protein X1 of SARS-CoV Urbani” value was determined as 0.6 and the “Binding of serum SARS-green to looped/cyclic peptide (PEPSCAN-ELISA)” value was 0.4. In experiment [2], the “Binding of serum SARS-yellow to linear peptides of protein X1 of SARS-CoV Urbani” value was determined as 0.5 and the “Binding of serum SARS-yellow to looped/cyclic peptide (PEPSCAN-ELISA)” value turned out to be 0.5. In addition, in experiment [3], the “Binding of a rabbit serum to linear peptides” value is 0.5 and the “Binding of a rabbit serum to looped peptides” value is on record as 0.5.
For the sequence MESELVIGAVIIRGH, in experiment [1], the “Binding of Control Serum Blood-Bank to Looped peptides of the protein M of SARS-CoV Urbani” value amounted to 0.7, the “Binding of Control serum Blood-bank to linear peptides of the protein M of SARS-CoV Urbani” value is 0.8, the “Binding of Control serum LUMC to linear peptides of the protein M of SARS-CoV Urbani” value is on record as 0.8 and the “Binding of Control serum LUMC to looped peptides of the protein M of SARS-CoV Urbani” value stood at 0.6. In experiment [2], the “Binding of serum 1a to linear peptides of protein M of SARS-CoV Urbani” value stood at 0.8, the “Binding of serum 1a to looped/cyclic peptides of protein M of SARS-CoV Urbani” value came to 0.7, the “Binding of serum 1b to linear peptides of protein M of SARS-CoV Urbani” value is recorded as 0.7 and the “Binding of serum 1b to looped/cyclic peptides of protein M of SARS-CoV Urbani” value worked out at 0.5. For the same sequence, in experiment [2], the “Binding of serum 2 to linear peptides of protein M of SARS-CoV Urbani” value worked out at 0.8, the “Binding of serum 2 to looped/cyclic peptides of protein M of SARS-CoV Urbani” value is reported as 0.6, the “Binding of serum 6 to linear peptides of protein M of SARS-CoV Urbani” value is recorded as 0.6 and the “Binding of serum 6 to looped/cyclic peptides of protein M of SARS-CoV Urbani” value is 0.7. In experiment [2], the “Binding of serum 37 to linear peptides of protein M of SARS-CoV Urbani” value is given as 0.5, the “Binding of serum 37 to looped/cyclic peptides of protein M of SARS-CoV Urbani” value is listed as 0.7, the “Binding of serum 62 to linear peptides of protein M of SARS-CoV Urbani” value stood at 0.5 and the “Binding of serum 62 to looped/cyclic peptides of protein M of SARS-CoV Urbani” value was 0.6. For the same sequence, in experiment [2], the “Binding of serum London to linear peptides of protein M of SARS-CoV Urbani” value amounted to 0.4, the “Binding of serum London to looped/cyclic peptides of protein M of SARS-CoV Urbani” value was 0.2, the “Binding of serum SARS-green to linear peptides of protein M of SARS-CoV Urbani” value was 0.7 and the “Binding of serum SARS-green to looped/cyclic peptides of protein M of SARS-CoV Urbani” value was determined as 0.2. For the same sequence, in experiment [2], the “Binding of serum SARS-yellow to linear peptides of protein M of SARS-CoV Urbani” value is 0.2 and the “Binding of serum SARS-yellow to looped/cyclic peptides of protein M of SARS-CoV Urbani” value was 0.6. In experiment [3], the “Rabbit serum linear peptides” value came to 0.2 and the “Rabbit serum looped peptides” value was found to be 0.2.
As for MFHLVDFQVTIAEIL, in experiment [1], the “Binding of Control Serum Blood-Bank to Looped peptides of the protein X3 of SARS-CoV Urbani” value was 0.8, the “Binding of Control serum Blood-bank to linear peptides of the protein X3 of SARS-CoV Urbani” value was determined as 0.9, the “Binding of Control serum LUMC to linear peptides of the protein X3 of SARS-CoV Urbani” value was found to be 0.9 and the “Binding of Control serum LUMC to looped peptides of the protein X3 of SARS-CoV Urbani” value came to 1.0. Further, in experiment [2], the “Binding of serum 1a to linear peptides of protein X3 of SARS-CoV Urbani” value was 0.8, the “Binding of serum 1a to looped/cyclic peptides of protein X3 of SARS-CoV Urbani” value worked out at 0.8, the “Binding of serum 1b to linear peptides of protein X3 of SARS-CoV Urbani” value stood at 0.7 and the “Binding of serum 1b to looped/cyclic peptides of protein X3 of SARS-CoV Urbani” value was 0.6. Moreover, in experiment [2], the “Binding of serum 2 to linear peptides of protein X3 of SARS-CoV Urbani” value was 0.7, the “Binding of serum 2 to looped/cyclic peptides of protein X3 of SARS-CoV Urbani” value is 0.8, the “Binding of serum 6 to linear peptides of protein X3 of SARS-CoV Urbani” value is given as 0.5 and the “Binding of serum 6 to looped/cyclic peptides of protein X3 of SARS-CoV Urbani” value was 0.6. In addition, in experiment [2], the “Binding of serum 37 to linear peptides of protein X3 of SARS-CoV Urbani” value stood at 0.7, the “Binding of serum 37 to looped/cyclic peptides of protein X3 of SARS-CoV Urbani” value is recorded as 1.0, the “Binding of serum 62 to linear peptides of protein X3 of SARS-CoV Urbani” value amounted to 0.8 and the “Binding of serum 62 to looped/cyclic peptides of protein X3 of SARS-CoV Urbani” value was 0.8. In experiment [2], the “Binding of serum London to linear peptides of protein X3 of SARS-CoV Urbani” value came to 0.7, the “Binding of serum London to looped/cyclic peptides of protein X3 of SARS-CoV Urbani” value turned out to be 0.3, the “Binding of serum SARS-green to linear peptides of protein X3 of SARS-CoV Urbani” value was 0.3 and the “Binding of serum SARS-green to looped/cyclic peptides of protein X3 of SARS-CoV Urbani” value was 0.6. Besides, in experiment [2], the “Binding of serum SARS-yellow to linear peptides of protein X3 of SARS-CoV Urbani” value is on record as 0.6 and the “Binding of serum SARS-yellow to looped/cyclic peptides of protein X3 of SARS-CoV Urbani” value is 0.8. In experiment [3], the “Rabbit serum linear peptides” value was 0.3 and the “Rabbit serum looped peptides” value amounted to 0.4.
